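1) Cells in 96-well plates. 2) Compound, 48 h, 5 concentrations. 3) Linear interpolation between surrounding doses. 4) Unreached endpoint = highest concentration. GI50 marks 50% less growth. Definition used: TGI = concentration required for complete inhibition of growth.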
Assays:
Assay in all cases: NCI-60 cell line screen, 48 h
SF-295 CNS = system: SF-295 CNS
TK-10 renal = system: TK-10 renal
PC-3 prostate = system: PC-3 prostate
MOLT-4 leukemia = system: MOLT-4 leukemia
HCC-2998 colon = system: HCC-2998 colon
RPMI-8226 leukemia = system: RPMI-8226 leukemia
HCT-15 colon = system: HCT-15 colon
IGROV1 ovarian = system: IGROV1 ovarian
MDA-MB-231 breast = system: MDA-MB-231 breast
SNB-19 CNS = system: SNB-19 CNS
RXF 393 renal = system: RXF 393 renal
K-562 leukemia = system: K-562 leukemia
UACC-62 melanoma = system: UACC-62 melanoma
EKVX NSCLC = system: EKVX NSCLC
BT-549 breast = system: BT-549 breast
HS 578T breast = system: HS 578T breast
SK-OV-3 ovarian = system: SK-OV-3 ovarian
OVCAR-3 ovarian = system: OVCAR-3 ovarian
HT29 colon = system: HT29 colon
SF-539 CNS = system: SF-539 CNS
A498 renal = system: A498 renal
NCI-H23 lung = system: NCI-H23 lung
KM12 colon = system: KM12 colon
NCI/ADR-RES ovarian = system: NCI/ADR-RES ovarian
MDA-MB-435 = system: MDA-MB-435
SNB-75 CNS = system: SNB-75 CNS
NCI-H460 lung = system: NCI-H460 lung
M14 melanoma = system: M14 melanoma
UO-31 renal = system: UO-31 renal
SK-MEL-5 melanoma = system: SK-MEL-5 melanoma
COLO 205 colon = system: COLO 205 colon
CCRF-CEM leukemia = system: CCRF-CEM leukemia
786-0 renal = system: 786-0 renal
HOP-62 NSCLC = system: HOP-62 NSCLC
SR leukemia = system: SR leukemia
U251 CNS = system: U251 CNS
OVCAR-5 ovarian = system: OVCAR-5 ovarian
CAKI-1 renal = system: CAKI-1 renal
ACHN renal = system: ACHN renal
LOX IMVI melanoma = system: LOX IMVI melanoma
DU-145 prostate = system: DU-145 prostate
SN12C renal = system: SN12C renal
SW-620 colon = system: SW-620 colon
SF-268 CNS = system: SF-268 CNS
HOP-92 NSCLC = system: HOP-92 NSCLC
SK-MEL-28 melanoma = system: SK-MEL-28 melanoma
UACC-257 melanoma = system: UACC-257 melanoma
A549 NSCLC = system: A549 NSCLC
SK-MEL-2 melanoma = system: SK-MEL-2 melanoma
HL-60(TB) leukemia = system: HL-60(TB) leukemia
NCI-H226 lung = system: NCI-H226 lung
HCT-116 colon = system: HCT-116 colon
OVCAR-8 ovarian = system: OVCAR-8 ovarian
MCF7 breast = system: MCF7 breast
NCI-H522 lung = system: NCI-H522 lung
OVCAR-4 ovarian = system: OVCAR-4 ovarian

Compound: CCN1C(=O)N(CC)C2C1NN=c1s/c(=C\c3cccs3)c(=O)n12 (stereo unspecified)
- GI50 (SF-295 CNS): 0.069 µM
- TGI (SF-295 CNS): > 100 µM
- GI50 (TK-10 renal): > 100 µM
- TGI (TK-10 renal): > 100 µM
- GI50 (PC-3 prostate): 0.12 µM
- TGI (PC-3 prostate): > 100 µM
- GI50 (MOLT-4 leukemia): 0.396 µM
- TGI (MOLT-4 leukemia): > 100 µM
- GI50 (HCC-2998 colon): 0.257 µM
- TGI (HCC-2998 colon): > 100 µM
- GI50 (RPMI-8226 leukemia): 0.412 µM
- TGI (RPMI-8226 leukemia): > 100 µM
- GI50 (HCT-15 colon): 0.0575 µM
- TGI (HCT-15 colon): > 100 µM
- GI50 (IGROV1 ovarian): 0.217 µM
- TGI (IGROV1 ovarian): > 100 µM
- GI50 (MDA-MB-231 breast): 0.468 µM
- TGI (MDA-MB-231 breast): > 100 µM
- GI50 (SNB-19 CNS): 0.506 µM
- TGI (SNB-19 CNS): > 100 µM
- GI50 (RXF 393 renal): 0.141 µM
- TGI (RXF 393 renal): > 100 µM
- GI50 (K-562 leukemia): 0.0551 µM
- TGI (K-562 leukemia): > 100 µM
- TGI (UACC-62 melanoma): > 100 µM
- TGI (EKVX NSCLC): > 100 µM
- GI50 (BT-549 breast): 0.443 µM
- TGI (BT-549 breast): > 100 µM
- GI50 (HS 578T breast): 0.112 µM
- GI50 (SK-OV-3 ovarian): 0.649 µM
- TGI (SK-OV-3 ovarian): > 100 µM
- GI50 (OVCAR-3 ovarian): 0.0462 µM
- GI50 (HT29 colon): 0.0557 µM
- TGI (HT29 colon): > 100 µM
- GI50 (SF-539 CNS): 0.0949 µM
- TGI (SF-539 CNS): 0.812 µM
- GI50 (A498 renal): 0.021 µM
- TGI (A498 renal): 0.0813 µM
- GI50 (NCI-H23 lung): 0.375 µM
- TGI (NCI-H23 lung): > 100 µM
- GI50 (KM12 colon): 0.0545 µM
- TGI (KM12 colon): > 82.6 µM
- GI50 (NCI/ADR-RES ovarian): 0.0831 µM
- TGI (NCI/ADR-RES ovarian): > 100 µM
- GI50 (MDA-MB-435): 0.0268 µM
- TGI (MDA-MB-435): 0.0828 µM
- GI50 (SNB-75 CNS): 0.0976 µM
- TGI (SNB-75 CNS): > 100 µM
- GI50 (NCI-H460 lung): 0.119 µM
- GI50 (M14 melanoma): 0.105 µM
- TGI (M14 melanoma): > 100 µM
- GI50 (UO-31 renal): 0.594 µM
- TGI (UO-31 renal): > 100 µM
- GI50 (SK-MEL-5 melanoma): 0.218 µM
- TGI (SK-MEL-5 melanoma): 4.26 µM
- GI50 (COLO 205 colon): 0.154 µM
- TGI (COLO 205 colon): > 100 µM
- GI50 (CCRF-CEM leukemia): 0.256 µM
- TGI (CCRF-CEM leukemia): > 100 µM
- GI50 (786-0 renal): 1.03 µM
- TGI (786-0 renal): > 100 µM
- GI50 (HOP-62 NSCLC): 0.302 µM
- TGI (HOP-62 NSCLC): > 100 µM
- GI50 (SR leukemia): 0.0576 µM
- TGI (SR leukemia): > 100 µM
- GI50 (U251 CNS): 0.245 µM
- TGI (U251 CNS): > 100 µM
- GI50 (OVCAR-5 ovarian): 0.445 µM
- TGI (OVCAR-5 ovarian): > 100 µM
- GI50 (CAKI-1 renal): 0.0745 µM
- TGI (CAKI-1 renal): > 100 µM
- GI50 (ACHN renal): 0.253 µM
- TGI (ACHN renal): > 100 µM
- GI50 (LOX IMVI melanoma): 0.139 µM
- TGI (LOX IMVI melanoma): > 100 µM
- GI50 (DU-145 prostate): 0.281 µM
- TGI (DU-145 prostate): > 29.9 µM
- GI50 (SN12C renal): 0.555 µM
- TGI (SN12C renal): > 100 µM
- GI50 (SW-620 colon): 0.0667 µM
- TGI (SW-620 colon): > 100 µM
- GI50 (SF-268 CNS): 1.67 µM
- TGI (SF-268 CNS): > 100 µM
- GI50 (HOP-92 NSCLC): > 25.8 µM
- TGI (HOP-92 NSCLC): > 100 µM
- TGI (SK-MEL-28 melanoma): > 100 µM
- GI50 (UACC-257 melanoma): > 100 µM
- TGI (UACC-257 melanoma): > 100 µM
- GI50 (A549 NSCLC): 0.244 µM
- TGI (A549 NSCLC): > 100 µM
- GI50 (SK-MEL-2 melanoma): 1.41 µM
- TGI (SK-MEL-2 melanoma): > 100 µM
- GI50 (HL-60(TB) leukemia): 0.225 µM
- TGI (HL-60(TB) leukemia): 0.707 µM
- GI50 (NCI-H226 lung): 2.76 µM
- TGI (NCI-H226 lung): > 23 µM
- GI50 (HCT-116 colon): 0.0903 µM
- TGI (HCT-116 colon): > 100 µM
- GI50 (OVCAR-8 ovarian): 0.424 µM
- TGI (OVCAR-8 ovarian): > 100 µM
- GI50 (MCF7 breast): 0.0496 µM
- TGI (MCF7 breast): > 100 µM
- GI50 (NCI-H522 lung): 0.0974 µM
- TGI (NCI-H522 lung): > 100 µM
- GI50 (OVCAR-4 ovarian): 1.82 µM
- TGI (OVCAR-4 ovarian): > 100 µM
